IC50 and Ki data for 14 compounds are collected here from BindingDB's records for doi:10.7270/Q2DF6PMF (Nmmlsc, 2007).

This assay addresses T1, N-formyl peptide receptor 2 (Homo sapiens, UniProt P25090).
T1 sequence (P25090 whole entry): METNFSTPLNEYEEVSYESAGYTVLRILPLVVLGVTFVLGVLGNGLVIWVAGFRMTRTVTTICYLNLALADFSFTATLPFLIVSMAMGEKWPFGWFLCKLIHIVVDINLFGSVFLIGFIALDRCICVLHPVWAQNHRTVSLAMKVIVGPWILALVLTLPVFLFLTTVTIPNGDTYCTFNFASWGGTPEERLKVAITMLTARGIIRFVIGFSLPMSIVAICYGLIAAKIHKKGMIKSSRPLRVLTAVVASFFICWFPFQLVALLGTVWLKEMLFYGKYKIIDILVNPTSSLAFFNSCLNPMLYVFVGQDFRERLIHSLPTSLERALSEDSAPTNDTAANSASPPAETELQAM
As to the kind of experiment: FPRL1 binding inhibitor potency, dose response, cell-based, FPR counter-screen, fluorescent ligand (AID 520). (The purpose of a counterscreen is to sort out artefacts and off-target activity.)

In turn, `COc1ccc(C2C(C(=O)c3ccco3)C(=O)C(=O)N2CCc2ccccc2)cc1OC` (stereo unspecified) [2-(3,4-dimethoxyphenyl)-3-(furan-2-carbonyl)-4-hydroxy-1-(2-phenylethyl)-2H-pyrrol-5-one] had a half-maximal inhibitory concentration (IC50) above 66.7 µM and a Ki above 40.3 µM.

For the compound `COc1ccc(C2C(C(=O)c3ccco3)C(=O)C(=O)N2Cc2cccnc2)cc1OC` (stereo unspecified) [2-(3,4-dimethoxyphenyl)-3-(furan-2-carbonyl)-4-hydroxy-1-(pyridin-3-ylmethyl)-2H-pyrrol-5-one], the half-maximal inhibitory concentration (IC50) is above 66.7 µM and the inhibition constant (Ki) is above 40.3 µM.

Turning to `COc1cc(C2C(C(=O)c3ccco3)C(=O)C(=O)N2c2cc(C)on2)cc(Br)c1O` (stereo unspecified) [2-(3-bromanyl-5-methoxy-4-oxidanyl-phenyl)-3-(furan-2-ylcarbonyl)-1-(5-methyl-1,2-oxazol-3-yl)-4-oxidanyl-2H-pyrrol-5-one], the IC50 was above 66.7 µM and the inhibition constant Ki was above 40.3 µM.

For `COCCCN1C(=O)C(=O)C(C(=O)c2ccco2)C1c1cccc(Br)c1` (stereo unspecified) [2-(3-bromophenyl)-3-(furan-2-carbonyl)-4-hydroxy-1-(3-methoxypropyl)-2H-pyrrol-5-one], the concentration for half-maximal inhibition (IC50) is above 66.7 µM and the Ki is above 40.3 µM.

The compound `O=C1C(=O)N(c2ncccn2)C(c2cccc(Cl)c2)C1C(=O)c1ccco1` (stereo unspecified) [2-(3-chlorophenyl)-3-(furan-2-carbonyl)-4-hydroxy-1-pyrimidin-2-yl-2H-pyrrol-5-one] had a half-maximal inhibitory concentration (IC50) above 66.7 µM and a Ki above 40.3 µM.

Under “inactive by the depositor's call”, `CNc1nn(-c2cccc(Cl)c2)nc1N` [2-(3-chlorophenyl)-4-N-methyltriazole-4,5-diamine] came in with a half-maximal inhibitory concentration (IC50) of 18.2 µM.

`CCOc1cc(C2C(C(=O)c3ccco3)C(=O)C(=O)N2CCc2ccccc2)ccc1O` (stereo unspecified) [2-(3-ethoxy-4-hydroxyphenyl)-3-(furan-2-carbonyl)-4-hydroxy-1-(2-phenylethyl)-2H-pyrrol-5-one] displayed an IC50 above 66.7 µM and an inhibitory constant (Ki) above 40.3 µM.

In turn, `CCOc1cc(C2C(C(=O)c3ccc(C)o3)C(=O)C(=O)N2CCc2ccccc2)ccc1O` (stereo unspecified) [2-(3-ethoxy-4-hydroxyphenyl)-4-hydroxy-3-(5-methylfuran-2-carbonyl)-1-(2-phenylethyl)-2H-pyrrol-5-one] registered an IC50 above 66.7 µM and an inhibition constant (Ki) above 40.3 µM.

With `COc1cc(C2C(C(=O)c3ccc(C)o3)C(=O)C(=O)N2CCc2ccccc2)ccc1O` (stereo unspecified) [2-(3-methoxy-4-oxidanyl-phenyl)-3-(5-methylfuran-2-yl)carbonyl-4-oxidanyl-1-(2-phenylethyl)-2H-pyrrol-5-one], the concentration for half-maximal inhibition (IC50) was above 66.7 µM and the Ki is above 40.3 µM.

Take `COc1cc(C2C(C(=O)c3ccc(C)o3)C(=O)C(=O)N2Cc2cccnc2)ccc1O` (stereo unspecified) [2-(3-methoxy-4-oxidanyl-phenyl)-3-(5-methylfuran-2-yl)carbonyl-4-oxidanyl-1-(pyridin-3-ylmethyl)-2H-pyrrol-5-one]: the IC50 is above 66.7 µM and the Ki was above 40.3 µM.

`COc1ccc(-c2cc(C(F)(F)F)nc(N3CCN(Cc4ccccc4)CC3)n2)cc1OC` [2-(4-benzylpiperazin-1-yl)-4-(3,4-dimethoxyphenyl)-6-(trifluoromethyl)pyrimidine] gave an IC50 of 12.1 µM.

For the compound `COCCCN1C(=O)C(=O)C(C(=O)c2ccco2)C1c1ccc(Br)cc1` (stereo unspecified) [2-(4-bromophenyl)-3-(furan-2-carbonyl)-4-hydroxy-1-(3-methoxypropyl)-2H-pyrrol-5-one], the IC50 is above 66.7 µM and the inhibitory constant (Ki) was above 40.3 µM.

Compound `Cc1nc(C)c(C(=O)C2C(=O)C(=O)N(CCCn3ccnc3)C2c2ccc(Cl)cc2)s1` (stereo unspecified) [2-(4-chlorophenyl)-3-(2,4-dimethyl-1,3-thiazole-5-carbonyl)-4-hydroxy-1-(3-imidazol-1-ylpropyl)-2H-pyrrol-5-one] displayed a half-maximal inhibitory concentration (IC50) above 66.7 µM and a Ki above 40.3 µM.

`O=C1C(=O)N(c2ncccn2)C(c2ccc(Cl)cc2)C1C(=O)c1ccco1` (stereo unspecified) [2-(4-chlorophenyl)-3-(furan-2-carbonyl)-4-hydroxy-1-pyrimidin-2-yl-2H-pyrrol-5-one] came in with an IC50 above 66.7 µM and a Ki above 40.3 µM.

For orientation: IC50 means the concentration at which inhibition is half-maximal. Lower therefore signals greater potency in that assay. By Ki is commonly meant a measure of affinity in units of concentration, obtained from inhibition or displacement. A higher Ki goes with weaker binding.
